Data: US20260325533A1, “CDK INHIBITOR COMPOUNDS” (ALEKSIA THERAPEUTICS, INC., priority 2023, published 2026)
Where two headings read alike, the source gives them in different places.

Assays:
Format in all cases: biochemical
CDK6/CCND1 = CDK6/CCND1 (Homo sapiens, UniProt Q00534); assay: CDK6 homogeneous time-resolved fluorescence (HTRF) kinase assay; details: CDK6/CCND; x = IC50 >250 nM; read-out: CDK6/CCND IC50 (>250 nM column)
Summary of the method: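 1 nM enzyme, 1 mM ATP, 50 nM ULight-4E-BP1 (Thr37/46) peptide, 1% DMSO; 20 min compound preincubation, 60 min reaction, 23 °C. EDTA stop, 2 nM Eu-anti-phospho-4E-BP1 antibody 60 min. TR-FRET 665 nm (or 665/615 ratio); IC50 from 11-point half-log titration, top 10 μM.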

CDK4/CCND3 = CDK4/CCND3 (Homo sapiens, UniProt P11802); assay: CDK4 homogeneous time-resolved fluorescence (HTRF) kinase assay; details: CDK4/CCND; x = IC50 >250 nM; read-out: CDK4/CCND IC50 (>250 nM column)
CDK4/CCND3, sequence (P11802 whole entry): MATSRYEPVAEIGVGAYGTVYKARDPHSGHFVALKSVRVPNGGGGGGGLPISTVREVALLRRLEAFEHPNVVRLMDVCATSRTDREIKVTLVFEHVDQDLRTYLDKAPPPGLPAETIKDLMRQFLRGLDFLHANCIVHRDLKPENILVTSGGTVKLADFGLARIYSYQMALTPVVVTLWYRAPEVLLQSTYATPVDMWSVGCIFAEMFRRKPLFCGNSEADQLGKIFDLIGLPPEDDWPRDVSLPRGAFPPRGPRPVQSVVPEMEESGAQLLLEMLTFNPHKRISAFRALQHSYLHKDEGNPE
CDK4/CCND3, sequence (P30281 whole entry partner): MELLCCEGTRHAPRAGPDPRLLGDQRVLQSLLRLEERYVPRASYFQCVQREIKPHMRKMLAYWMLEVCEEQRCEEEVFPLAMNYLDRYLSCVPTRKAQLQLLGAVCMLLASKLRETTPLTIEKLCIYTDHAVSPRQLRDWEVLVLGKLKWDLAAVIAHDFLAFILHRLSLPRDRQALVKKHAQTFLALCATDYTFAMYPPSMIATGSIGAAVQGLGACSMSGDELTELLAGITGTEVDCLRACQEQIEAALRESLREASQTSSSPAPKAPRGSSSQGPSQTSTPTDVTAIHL
Summary of the method: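 Compounds were preincubated with 1.5 nM CDK4/CCND3 for 20 min at 23 °C in HEPES buffer (pH not given), then reacted 60 min with 1 mM ATP and 50 nM ULight-4E-BP1 (Thr37/46) peptide. EDTA stop, Eu-anti-phospho-4E-BP1 detection; 665/615 nm ratio; IC50 from 11-point half-log titrations from 10 μM.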

CDK2/CCNE1 = CDK2/CCNE1 (Homo sapiens, UniProt P24941); assay: CDK2 homogeneous time-resolved fluorescence (HTRF) kinase assay; details: CDK2/CCNE
Summary of the method: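 Compounds were titrated 11-point, half-log from typically 10 μM against 3 nM CDK2/cyclin E1 at 1 mM ATP, with a 20 min enzyme preincubation. Phosphorylation of 50 nM ULight-4E-BP1 peptide over 60 min at 23 °C was detected by europium anti-phospho antibody TR-FRET.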

CDK1/CCNB1 = CDK1/CCNB1 (Homo sapiens, UniProt P06493); assay: CDK1 homogeneous time-resolved fluorescence (HTRF) kinase assay; details: CDK1/CCNB; x = IC50 >250 nM; read-out: CDK1/CCNB IC50 (>250 nM column)
CDK1/CCNB1, sequence (P06493 whole entry): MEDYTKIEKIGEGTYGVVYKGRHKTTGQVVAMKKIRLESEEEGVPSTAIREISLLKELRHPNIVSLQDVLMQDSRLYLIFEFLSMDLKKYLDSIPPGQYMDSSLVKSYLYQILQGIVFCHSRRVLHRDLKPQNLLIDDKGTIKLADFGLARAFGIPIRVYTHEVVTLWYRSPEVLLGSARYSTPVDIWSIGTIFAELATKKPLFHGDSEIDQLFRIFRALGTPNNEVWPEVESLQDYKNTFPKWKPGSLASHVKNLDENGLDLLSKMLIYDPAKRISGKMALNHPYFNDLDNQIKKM
CDK1/CCNB1, sequence (P14635 whole entry partner): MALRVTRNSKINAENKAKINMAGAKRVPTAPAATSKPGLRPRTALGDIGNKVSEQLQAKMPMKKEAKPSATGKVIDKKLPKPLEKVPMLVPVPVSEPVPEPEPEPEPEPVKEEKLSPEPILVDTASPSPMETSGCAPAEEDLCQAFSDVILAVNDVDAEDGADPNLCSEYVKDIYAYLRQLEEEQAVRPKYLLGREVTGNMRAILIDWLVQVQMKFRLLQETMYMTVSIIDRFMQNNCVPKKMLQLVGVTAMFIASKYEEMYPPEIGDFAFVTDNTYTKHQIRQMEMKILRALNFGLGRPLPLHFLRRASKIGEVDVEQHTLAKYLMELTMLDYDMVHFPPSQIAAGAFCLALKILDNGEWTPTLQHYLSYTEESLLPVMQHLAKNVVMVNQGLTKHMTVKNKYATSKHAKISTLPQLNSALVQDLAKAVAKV
Summary of the method: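 Compounds, titrated 11 points in half-log steps typically from 10 μM, were incubated with enzyme for 20 min before ATP (1 mM) and ULight-labelled eIF4E-binding protein 1 peptide (50 nM) started a 60-min reaction at 23 °C. Phosphopeptide was detected by europium-antibody TR-FRET and IC50 values were derived.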

[1] = x = IC50 25-250 nM, read-out: CDK2/CCNE IC50 (25-250 nM)
[2] = x = IC50 <25 nM, read-out: CDK2/CCNE IC50 (<25 nM)

CDK6/CCND1, sequence (Q00534 whole entry): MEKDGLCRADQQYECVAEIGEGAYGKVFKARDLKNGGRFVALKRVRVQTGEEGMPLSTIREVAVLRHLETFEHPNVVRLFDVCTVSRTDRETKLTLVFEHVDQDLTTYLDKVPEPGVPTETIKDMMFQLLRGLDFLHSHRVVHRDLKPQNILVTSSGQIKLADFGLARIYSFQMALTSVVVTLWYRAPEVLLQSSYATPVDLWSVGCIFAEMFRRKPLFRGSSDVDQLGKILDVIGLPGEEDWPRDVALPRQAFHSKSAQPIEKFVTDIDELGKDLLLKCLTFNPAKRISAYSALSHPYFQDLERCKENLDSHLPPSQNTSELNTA
CDK6/CCND1, sequence (P24385 whole entry partner): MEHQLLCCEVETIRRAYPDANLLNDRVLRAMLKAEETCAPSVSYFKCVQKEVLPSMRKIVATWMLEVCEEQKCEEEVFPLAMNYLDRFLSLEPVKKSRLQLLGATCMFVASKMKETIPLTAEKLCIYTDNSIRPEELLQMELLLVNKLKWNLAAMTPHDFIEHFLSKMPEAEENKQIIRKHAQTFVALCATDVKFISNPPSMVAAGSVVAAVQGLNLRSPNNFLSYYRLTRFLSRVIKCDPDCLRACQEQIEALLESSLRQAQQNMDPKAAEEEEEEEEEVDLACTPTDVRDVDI

Compound	IC50 (CDK6/CCND1)	IC50 (CDK4/CCND3)	IC50 (CDK2/CCNE1; [1])	IC50 (CDK1/CCNB1)	IC50 (CDK2/CCNE1; [2])	IC50 (CDK2/CCNE1; x = IC50 >250 nM, read-out: CDK2/CCNE IC50 (>250 nM column))
CS(=O)(=O)c1ccc(Nc2cc3c(C#Cc4cc(N)ncc4F)nccc3cn2)cc1 [Ex 557, 5-((2-amino-5-fluoropyridin-4-yl)ethynyl)-N-(4-(methylsulfonyl)phenyl)-2,6-naphthyridin-3-amine]	> 250 nM	> 250 nM	–	> 250 nM	< 25 nM	–
CS(=O)(=O)c1ccc(Nc2cc3c(C#Cc4cc(N)n[nH]4)nccc3cn2)cc1 [Ex 559, 5-((3-amino-1H-pyrazol-5-yl)ethynyl)-N-(4-(methylsulfonyl)phenyl)-2,6-naphthyridin-3-amine]	> 250 nM	> 250 nM	25 to 250 nM	> 250 nM	–	–
CS(=O)(=O)c1ccc(Nc2cc3c(C#Cc4ccc(F)c(O)c4)nccc3cn2)cc1 [Ex 560, 2-fluoro-5-((7-((4-(methylsulfonyl)phenyl)amino)-2,6-naphthyridin-1-yl)ethynyl)phenol]	> 250 nM	> 250 nM	25 to 250 nM	> 250 nM	–	–
CS(=O)(=O)c1ccc(Nc2cc3c(C#Cc4n[nH]c5ncccc45)nccc3cn2)cc1 [Ex 561, 5-((1H-pyrazolo[3,4-b]pyridin-3-yl)ethynyl)-N-(4-(methylsulfonyl)phenyl)-2,6-naphthyridin-3-amine]	> 250 nM	> 250 nM	25 to 250 nM	> 250 nM	–	–
CS(=O)(=O)c1ccc(Nc2cc3c(C#Cc4ccc(C(F)(F)F)cc4N)nccc3cn2)cc1 [Ex 563, 5-((2-amino-4-(trifluoromethyl)phenyl)ethynyl)-N-(4-(methylsulfonyl)phenyl)-2,6-naphthyridin-3-amine]	> 250 nM	> 250 nM	25 to 250 nM	> 250 nM	–	–
Cc1c(C#N)cccc1C#Cc1nccc2cnc(Nc3ccc(S(C)(=O)=O)cc3)cc12 [Ex 564, 2-methyl-3-((7-((4-(methylsulfonyl)phenyl)amino)-2,6-naphthyridin-1-yl)ethynyl)benzonitrile]	> 250 nM	> 250 nM	25 to 250 nM	> 250 nM	–	–
Cc1ncccc1C#Cc1nccc2cnc(Nc3ccc(S(C)(=O)=O)cc3)cc12 [Ex 565, 5-((2-methylpyridin-3-yl)ethynyl)-N-(4-(methylsulfonyl)phenyl)-2,6-naphthyridin-3-amine]	> 250 nM	> 250 nM	25 to 250 nM	> 250 nM	–	–
CS(=O)(=O)c1ccc(Nc2cc3c(C#Cc4ccc(N5CCOCC5)nc4)nccc3cn2)cc1 [Ex 566, N-(4-(methylsulfonyl)phenyl)-5-((6-morpholinopyridin-3-yl)ethynyl)-2,6-naphthyridin-3-amine]	> 250 nM	> 250 nM	25 to 250 nM	> 250 nM	–	–
CS(=O)(=O)c1ccc(Nc2cc3c(C#Cc4cc(Cl)ncc4N)nccc3cn2)cc1 [Ex 569, 5-((5-amino-2-chloropyridin-4-yl)ethynyl)-N-(4-(methylsulfonyl)phenyl)-2,6-naphthyridin-3-amine]	> 250 nM	> 250 nM	25 to 250 nM	> 250 nM	–	–
Cc1ccc(C#Cc2nccc3cnc(Nc4ccc(S(C)(=O)=O)cc4)cc23)c(N)c1 [Ex 570, 5-((2-amino-4-methylphenyl)ethynyl)-N-(4-(methylsulfonyl)phenyl)-2,6-naphthyridin-3-amine]	> 250 nM	> 250 nM	–	> 250 nM	< 25 nM	–
CS(=O)(=O)c1ccc(Nc2cc3c(C#Cc4ccncc4N)nccc3cn2)cc1 [Ex 572, 5-((3-aminopyridin-4-yl)ethynyl)-N-(4-(methylsulfonyl)phenyl)-2,6-naphthyridin-3-amine]	> 250 nM	> 250 nM	–	> 250 nM	< 25 nM	–
CS(=O)(=O)c1ccc(Nc2cc3c(C#Cc4n[nH]c5ccccc45)nccc3cn2)cc1 [Ex 573, 5-((1H-indazol-3-yl)ethynyl)-N-(4-(methylsulfonyl)phenyl)-2,6-naphthyridin-3-amine]	> 250 nM	> 250 nM	25 to 250 nM	> 250 nM	–	–
CS(=O)(=O)c1ccc(Nc2cc3c(C#Cc4cnc5cc[nH]c5c4)nccc3cn2)cc1 [Ex 574, 5-((1H-pyrrolo[3,2-b]pyridin-6-yl)ethynyl)-N-(4-(methylsulfonyl)phenyl)-2,6-naphthyridin-3-amine]	> 250 nM	> 250 nM	–	> 250 nM	< 25 nM	–
CS(=O)(=O)c1ccc(Nc2cc3c(C#Cc4cncc(Cl)c4N)nccc3cn2)cc1 [Ex 575, 5-((4-amino-5-chloropyridin-3-yl)ethynyl)-N-(4-(methylsulfonyl)phenyl)-2,6-naphthyridin-3-amine]	> 250 nM	> 250 nM	25 to 250 nM	> 250 nM	–	–
CS(=O)(=O)c1ccc(Nc2cc3c(C#Cc4c(N)cccc4Cl)nccc3cn2)cc1 [Ex 576, 5-((2-amino-6-chlorophenyl)ethynyl)-N-(4-(methylsulfonyl)phenyl)-2,6-naphthyridin-3-amine]	> 250 nM	> 250 nM	25 to 250 nM	> 250 nM	–	–
CS(=O)(=O)c1ccc(Nc2cc3c(C#Cc4ccnc(N)c4Cl)nccc3cn2)cc1 [Ex 580, 5-((2-amino-3-chloropyridin-4-yl)ethynyl)-N-(4-(methylsulfonyl)phenyl)-2,6-naphthyridin-3-amine]	> 250 nM	> 250 nM	–	> 250 nM	< 25 nM	–

Second part, the compound after the results:

IC50 (CDK6/CCND1)	IC50 (CDK4/CCND3)	IC50 (CDK2/CCNE1; [1])	IC50 (CDK1/CCNB1)	IC50 (CDK2/CCNE1; [2])	IC50 (CDK2/CCNE1; x = IC50 >250 nM, read-out: CDK2/CCNE IC50 (>250 nM column))	Compound
> 250 nM	> 250 nM	25 to 250 nM	> 250 nM	–	–	CS(=O)(=O)c1ccc(Nc2cc3c(C#Cc4cc(F)cnc4N)nccc3cn2)cc1 [Ex 556, 5-((2-amino-5-fluoropyridin-3-yl)ethynyl)-N-(4-(methylsulfonyl)phenyl)-2,6-naphthyridin-3-amine]
> 250 nM	> 250 nM	25 to 250 nM	> 250 nM	–	–	CS(=O)(=O)c1ccc(Nc2cc3c(C#Cc4ccc(N)nc4Cl)nccc3cn2)cc1 [Ex 558, 5-((6-amino-2-chloropyridin-3-yl)ethynyl)-N-(4-(methylsulfonyl)phenyl)-2,6-naphthyridin-3-amine]
> 250 nM	> 250 nM	25 to 250 nM	> 250 nM	–	–	CC(C)(O)Cn1ncc2c(C#Cc3nccc4cnc(Nc5ccc(S(C)(=O)=O)cc5)cc34)cncc21 [Ex 562, 2-methyl-1-(4-((7-((4-(methylsulfonyl)phenyl)amino)-2,6-naphthyridin-1-yl)ethynyl)-1H-pyrazolo[3,4-c]pyridin-1-yl)propan-2-ol]
> 250 nM	> 250 nM	–	> 250 nM	< 25 nM	–	CS(=O)(=O)c1ccc(Nc2cc3c(C#Cc4ccc(C#N)cc4N)nccc3cn2)cc1 [Ex 567, 3-amino-4-((7-((4-(methylsulfonyl)phenyl)amino)-2,6-naphthyridin-1-yl)ethynyl)benzonitrile]
> 250 nM	> 250 nM	–	> 250 nM	–	> 250 nM	COc1cc(C#Cc2nccc3cnc(Nc4ccc(S(C)(=O)=O)cc4)cc23)ncn1 [Ex 568, 5-((6-methoxypyrimidin-4-yl)ethynyl)-N-(4-(methylsulfonyl)phenyl)-2,6-naphthyridin-3-amine]
> 250 nM	> 250 nM	25 to 250 nM	> 250 nM	–	–	CS(=O)(=O)c1ccc(Nc2cc3c(C#Cc4cc(F)cc(C#N)c4)nccc3cn2)cc1 [Ex 571, 3-fluoro-5-((7-((4-(methylsulfonyl)phenyl)amino)-2,6-naphthyridin-1-yl)ethynyl)benzonitrile]
> 250 nM	> 250 nM	25 to 250 nM	> 250 nM	–	–	CS(=O)(=O)c1ccc(Nc2cc3c(C#Cc4cnc5ccc(Cl)nn45)nccc3cn2)cc1 [Ex 578, 5-((6-chloroimidazo[1,2-b]pyridazin-3-yl)ethynyl)-N-(4-(methylsulfonyl)phenyl)-2,6-naphthyridin-3-amine]
> 250 nM	> 250 nM	25 to 250 nM	> 250 nM	–	–	COc1ncccc1C#Cc1nccc2cnc(Nc3ccc(S(C)(=O)=O)cc3)cc12 [Ex 579, 5-((2-methoxypyridin-3-yl)ethynyl)-N-(4-(methylsulfonyl)phenyl)-2,6-naphthyridin-3-amine]
